This is an account of results in article PMC9781320 (Marine Drugs, 2022).

Positions of bridges follow the written chain, without caps; N, C: chain ends. Residues, ends and D or L forms follow the SMILES beside them.

Experiment [1] addresses T1, GABABR-coupled CaV2.2 (Homo sapiens, UniProt O75899+Q9UBS5).
T1 construct: expressed in transfected cells
In words: cell-based. The arrangement: species or system rat Cav2.2. The following applies: for inhibition at 1 µM: HEK293, read-out: Inhibition Efficacy (1 µM)%, SEM; for IC50: IC50 (nM) (95% Confidence Interval).

In the next experiment the target is T2, α3β4 nAChR (Rattus norvegicus, UniProt P04757+P12392).
T2 construct: expressed in transfected cells; host or cells: Xenopus oocytes, cRNA injected
T2 sequence (P04757 26-499 limits assumed): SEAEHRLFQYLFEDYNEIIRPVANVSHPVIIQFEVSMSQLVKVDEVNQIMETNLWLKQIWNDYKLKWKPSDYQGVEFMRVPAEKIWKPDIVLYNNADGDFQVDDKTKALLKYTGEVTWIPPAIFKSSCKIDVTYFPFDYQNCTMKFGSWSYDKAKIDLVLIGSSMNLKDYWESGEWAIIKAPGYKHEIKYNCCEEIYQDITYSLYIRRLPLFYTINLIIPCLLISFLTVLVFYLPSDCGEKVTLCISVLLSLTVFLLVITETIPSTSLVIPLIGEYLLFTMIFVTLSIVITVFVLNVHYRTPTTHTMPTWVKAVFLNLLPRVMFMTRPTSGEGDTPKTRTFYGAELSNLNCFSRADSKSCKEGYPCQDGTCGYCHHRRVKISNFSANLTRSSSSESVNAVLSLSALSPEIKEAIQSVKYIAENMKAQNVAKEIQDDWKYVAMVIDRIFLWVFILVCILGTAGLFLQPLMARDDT
T2 sequence (P12392 21-495 limits assumed): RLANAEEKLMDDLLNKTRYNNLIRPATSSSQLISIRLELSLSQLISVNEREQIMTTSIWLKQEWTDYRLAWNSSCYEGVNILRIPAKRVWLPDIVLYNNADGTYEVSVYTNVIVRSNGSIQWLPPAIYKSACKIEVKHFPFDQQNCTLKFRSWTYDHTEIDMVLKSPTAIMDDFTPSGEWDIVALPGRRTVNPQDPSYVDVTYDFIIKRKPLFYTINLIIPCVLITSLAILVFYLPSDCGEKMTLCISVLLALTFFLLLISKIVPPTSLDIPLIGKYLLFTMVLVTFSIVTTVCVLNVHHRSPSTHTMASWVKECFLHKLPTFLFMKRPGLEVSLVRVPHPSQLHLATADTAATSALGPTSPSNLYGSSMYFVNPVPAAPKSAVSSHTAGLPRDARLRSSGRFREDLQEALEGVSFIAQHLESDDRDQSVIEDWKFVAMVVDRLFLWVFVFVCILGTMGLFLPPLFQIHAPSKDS
Format: cell-based. The settings on record: SEM.

The target of the next experiment is T3, CaV2.2 (Rattus norvegicus, UniProt Q02294).
T3 construct: expressed in transfected cells; host or cells: HEK293
The format is cell-based.

Another experiment deals with T4, α4β2 nAChR (Rattus norvegicus, UniProt P09483+P12390).
T4 construct: expressed in transfected cells; host or cells: Xenopus oocytes, cRNA injected
T4 sequence (P09483 31-630 limits assumed): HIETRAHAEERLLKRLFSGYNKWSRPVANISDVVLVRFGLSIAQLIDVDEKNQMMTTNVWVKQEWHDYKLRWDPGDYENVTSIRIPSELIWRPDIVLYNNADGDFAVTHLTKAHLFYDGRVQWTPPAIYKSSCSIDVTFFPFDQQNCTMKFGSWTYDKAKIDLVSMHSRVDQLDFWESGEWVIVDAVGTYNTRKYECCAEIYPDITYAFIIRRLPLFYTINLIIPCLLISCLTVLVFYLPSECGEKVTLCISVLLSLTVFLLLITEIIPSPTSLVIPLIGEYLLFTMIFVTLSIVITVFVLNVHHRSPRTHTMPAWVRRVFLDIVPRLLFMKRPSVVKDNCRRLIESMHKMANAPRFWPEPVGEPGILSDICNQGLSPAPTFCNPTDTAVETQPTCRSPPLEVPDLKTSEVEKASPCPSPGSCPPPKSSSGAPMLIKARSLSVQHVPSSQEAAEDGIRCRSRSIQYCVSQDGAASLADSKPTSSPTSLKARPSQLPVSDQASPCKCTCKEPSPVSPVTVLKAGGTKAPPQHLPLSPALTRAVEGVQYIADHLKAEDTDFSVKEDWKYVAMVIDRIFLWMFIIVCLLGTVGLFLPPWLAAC
T4 sequence (P12390 25-500 limits assumed): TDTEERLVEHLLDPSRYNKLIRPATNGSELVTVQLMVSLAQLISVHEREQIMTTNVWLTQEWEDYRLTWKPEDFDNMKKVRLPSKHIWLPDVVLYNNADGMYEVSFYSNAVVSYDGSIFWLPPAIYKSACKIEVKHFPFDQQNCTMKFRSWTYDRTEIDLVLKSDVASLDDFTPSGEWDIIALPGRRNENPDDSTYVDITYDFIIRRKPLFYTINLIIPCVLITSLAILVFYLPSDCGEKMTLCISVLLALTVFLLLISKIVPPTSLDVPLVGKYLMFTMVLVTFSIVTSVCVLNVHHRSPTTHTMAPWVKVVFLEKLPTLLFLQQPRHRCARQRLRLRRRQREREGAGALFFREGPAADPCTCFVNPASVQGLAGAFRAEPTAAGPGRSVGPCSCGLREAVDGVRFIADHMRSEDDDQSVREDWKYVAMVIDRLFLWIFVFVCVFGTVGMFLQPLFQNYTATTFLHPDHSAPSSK
The format is cell-based. The following applies: SEM.

A further experiment concerns the target T5, α3β2 nAChR (Rattus norvegicus, UniProt P04757+P12390).
T5 construct: expressed in transfected cells; host or cells: Xenopus oocytes, cRNA injected
The format is cell-based. The following applies: SEM.

Another experiment addresses T6, α9α10 nAChR (Rattus norvegicus, UniProt P43144+Q9JLB5).
T6 construct: expressed in transfected cells; host or cells: Xenopus oocytes, cRNA injected
Format: cell-based. The following applies: SEM.

The target of another experiment is T7, α4β4 nAChR (Rattus norvegicus, UniProt P09483+P12392).
T7 construct: expressed in transfected cells; host or cells: Xenopus oocytes, cRNA injected
T7 sequence (P09483 31-630 limits assumed): as the sequence (P09483 31-630 limits assumed) above
T7 sequence (P12392 21-495 limits assumed): as the sequence (P12392 21-495 limits assumed) above
The format is cell-based. The following applies: SEM.

Another experiment concerns the target T8, α2β4 nAChR (Rattus norvegicus, UniProt P12389+P12392).
T8 construct: expressed in transfected cells; host or cells: Xenopus oocytes, cRNA injected
The format is cell-based. The settings on record: SEM.

For another experiment, the target named is T9, α7 nAChR (Rattus norvegicus, UniProt Q05941).
T9 construct: expressed in transfected cells; host or cells: Xenopus oocytes, cRNA injected
Format: cell-based. The following applies: SEM.

Experiment [2] has as its system GABABR-coupled CaV2.2. The following applies: cited from earlier work.

T1 sequence (Q9UBS5 15-961 limits assumed): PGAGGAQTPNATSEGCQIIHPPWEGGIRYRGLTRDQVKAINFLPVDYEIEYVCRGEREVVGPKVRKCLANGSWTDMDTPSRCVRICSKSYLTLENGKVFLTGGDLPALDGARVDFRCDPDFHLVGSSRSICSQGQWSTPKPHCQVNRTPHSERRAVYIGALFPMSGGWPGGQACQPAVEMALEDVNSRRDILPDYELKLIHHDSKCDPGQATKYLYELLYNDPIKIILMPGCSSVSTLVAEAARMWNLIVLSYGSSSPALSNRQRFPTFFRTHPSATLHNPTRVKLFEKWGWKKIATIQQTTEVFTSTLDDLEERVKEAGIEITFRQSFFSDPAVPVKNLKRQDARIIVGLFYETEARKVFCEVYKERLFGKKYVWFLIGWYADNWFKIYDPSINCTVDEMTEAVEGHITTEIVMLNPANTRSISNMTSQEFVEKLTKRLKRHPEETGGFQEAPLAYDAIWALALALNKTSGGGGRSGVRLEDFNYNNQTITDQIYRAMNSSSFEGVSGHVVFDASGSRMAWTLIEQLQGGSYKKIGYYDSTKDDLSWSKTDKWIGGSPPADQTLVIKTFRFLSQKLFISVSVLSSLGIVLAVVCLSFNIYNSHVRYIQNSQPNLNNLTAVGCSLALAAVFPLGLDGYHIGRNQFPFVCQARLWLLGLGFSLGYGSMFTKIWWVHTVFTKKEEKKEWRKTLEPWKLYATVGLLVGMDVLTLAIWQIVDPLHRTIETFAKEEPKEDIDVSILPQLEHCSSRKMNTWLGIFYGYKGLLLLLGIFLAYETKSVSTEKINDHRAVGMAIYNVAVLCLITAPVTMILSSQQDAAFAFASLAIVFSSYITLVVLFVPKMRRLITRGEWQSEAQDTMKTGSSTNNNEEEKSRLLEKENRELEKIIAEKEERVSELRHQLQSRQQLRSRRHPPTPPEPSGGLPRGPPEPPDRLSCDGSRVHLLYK
T1 sequence (O75899 42-941): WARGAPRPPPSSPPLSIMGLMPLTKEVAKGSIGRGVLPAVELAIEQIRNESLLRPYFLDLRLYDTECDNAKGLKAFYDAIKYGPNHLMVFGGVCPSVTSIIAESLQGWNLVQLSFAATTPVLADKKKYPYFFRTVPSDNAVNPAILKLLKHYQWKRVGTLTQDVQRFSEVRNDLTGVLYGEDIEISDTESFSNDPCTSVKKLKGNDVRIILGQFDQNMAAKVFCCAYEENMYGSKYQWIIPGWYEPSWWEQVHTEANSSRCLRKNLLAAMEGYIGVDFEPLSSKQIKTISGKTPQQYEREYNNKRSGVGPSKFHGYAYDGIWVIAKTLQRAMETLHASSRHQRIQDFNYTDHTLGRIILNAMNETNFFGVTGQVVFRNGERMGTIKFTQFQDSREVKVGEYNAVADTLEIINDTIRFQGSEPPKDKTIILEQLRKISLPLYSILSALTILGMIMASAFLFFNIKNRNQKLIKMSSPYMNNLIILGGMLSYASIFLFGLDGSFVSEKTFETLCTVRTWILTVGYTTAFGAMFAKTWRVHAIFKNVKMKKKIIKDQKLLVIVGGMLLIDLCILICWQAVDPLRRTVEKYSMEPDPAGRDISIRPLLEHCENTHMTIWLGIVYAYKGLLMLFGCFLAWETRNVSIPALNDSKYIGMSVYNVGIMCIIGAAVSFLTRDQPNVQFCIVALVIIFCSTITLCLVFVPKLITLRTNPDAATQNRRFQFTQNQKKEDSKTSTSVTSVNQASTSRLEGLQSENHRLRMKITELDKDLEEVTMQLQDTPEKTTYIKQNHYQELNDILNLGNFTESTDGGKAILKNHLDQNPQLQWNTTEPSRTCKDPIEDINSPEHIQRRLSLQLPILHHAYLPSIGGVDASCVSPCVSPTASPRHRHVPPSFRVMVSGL
T5 sequence (P04757 26-499 limits assumed): as the sequence (P04757 26-499 limits assumed) above
T5 sequence (P12390 25-500 limits assumed): as the sequence (P12390 25-500 limits assumed) above
T6 sequence (P43144 26-479 limits assumed): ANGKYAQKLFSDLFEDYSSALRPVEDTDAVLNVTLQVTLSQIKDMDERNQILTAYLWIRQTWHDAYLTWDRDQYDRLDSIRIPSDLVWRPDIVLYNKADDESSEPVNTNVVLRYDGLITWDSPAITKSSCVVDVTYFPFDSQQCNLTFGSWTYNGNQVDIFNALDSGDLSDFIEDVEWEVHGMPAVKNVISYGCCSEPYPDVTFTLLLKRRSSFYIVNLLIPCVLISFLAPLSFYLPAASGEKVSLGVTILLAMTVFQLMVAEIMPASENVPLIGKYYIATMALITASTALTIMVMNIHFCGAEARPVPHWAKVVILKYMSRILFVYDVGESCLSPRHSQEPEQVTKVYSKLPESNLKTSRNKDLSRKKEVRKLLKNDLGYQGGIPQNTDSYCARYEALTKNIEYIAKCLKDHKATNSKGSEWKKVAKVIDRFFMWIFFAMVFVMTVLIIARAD
T6 sequence (Q9JLB5 25-447 limits assumed): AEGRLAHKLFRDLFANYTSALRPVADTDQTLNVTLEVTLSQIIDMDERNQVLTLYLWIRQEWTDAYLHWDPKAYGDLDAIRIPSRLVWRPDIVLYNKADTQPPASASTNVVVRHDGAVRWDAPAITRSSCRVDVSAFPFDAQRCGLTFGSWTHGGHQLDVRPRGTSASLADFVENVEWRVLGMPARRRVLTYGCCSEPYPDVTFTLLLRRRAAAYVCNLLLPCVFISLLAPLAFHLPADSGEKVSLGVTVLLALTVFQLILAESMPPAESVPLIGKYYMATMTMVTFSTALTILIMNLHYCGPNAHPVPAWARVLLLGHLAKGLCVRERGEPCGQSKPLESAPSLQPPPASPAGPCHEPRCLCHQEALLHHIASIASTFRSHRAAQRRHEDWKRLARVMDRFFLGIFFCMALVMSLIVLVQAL

With `C[C@@H]1NC(=O)[C@H](Cc2ccccc2)NC(=O)[C@@H]2CSSC[C@H](NC(=O)CN)C(=O)N[C@@H](CSSC[C@@H](C(N)=O)NC(=O)[C@H](CC(=O)O)NC(=O)[C@@H]3CCCN3C(=O)[C@H](CC(N)=O)NC(=O)[C@H]([C@@H](C)O)NC1=O)C(=O)N[C@@H](CO)C(=O)N[C@@H](Cc1ccc(O)cc1)C(=O)N1CCC[C@H]1C(=O)N1CCC[C@H]1C(=O)N2` [AuIB(globular), reference compound], at GABABR-coupled CaV2.2 [1], the inhibition at 1 µM amounted to 27.4 ± 2.05% and the half-maximal inhibitory concentration (IC50) was found to be 1.93 nM.

For the molecule `CC[C@H](C)[C@@H]1NC(=O)[C@H](CC(=O)O)NC(=O)[C@@H]2CCCN2C(=O)[C@H](CC(N)=O)NC(=O)[C@H]([C@@H](C)O)NC(=O)[C@H](C)NC(=O)[C@H](Cc2ccccc2)NC(=O)[C@@H]2CSSC[C@H](NC(=O)CN)C(=O)N[C@@H](CSSC[C@@H](C(N)=O)NC1=O)C(=O)N[C@@H](CO)C(=O)N[C@@H](Cc1ccc(O)cc1)C(=O)N1CCC[C@H]1C(=O)N1CCC[C@H]1C(=O)N2` [AuIB[+15I]], on GABABR-coupled CaV2.2 [1], the inhibition at 1 µM is 30.4 ± 3.26%.

With `CC(C)C[C@@H]1NC(=O)[C@H](CC(=O)O)NC(=O)[C@@H]2CCCN2C(=O)[C@H](CC(N)=O)NC(=O)[C@H]([C@@H](C)O)NC(=O)[C@H](C)NC(=O)[C@H](Cc2ccccc2)NC(=O)[C@@H]2CSSC[C@H](NC(=O)CN)C(=O)N[C@@H](CSSC[C@@H](C(N)=O)NC1=O)C(=O)N[C@@H](CO)C(=O)N[C@@H](Cc1ccc(O)cc1)C(=O)N1CCC[C@H]1C(=O)N1CCC[C@H]1C(=O)N2` [AuIB[+15L]], the inhibition at 1 µM on GABABR-coupled CaV2.2 [1] was 27.9 ± 1.37%.

As to `C[C@@H]1NC(=O)[C@H](Cc2ccccc2)NC(=O)[C@@H]2CSSC[C@H](NC(=O)[C@@H](NC(=O)CN)CSSC[C@@H](C(N)=O)NC(=O)[C@H](CC(=O)O)NC(=O)[C@@H]3CCCN3C(=O)[C@H](CC(N)=O)NC(=O)[C@H]([C@@H](C)O)NC1=O)C(=O)N[C@@H](CO)C(=O)N[C@@H](Cc1ccc(O)cc1)C(=O)N1CCC[C@H]1C(=O)N[C@@H](CCCNC(=N)N)C(=O)N2` [AuIB[P7R](ribbon)] (H-GCCSYPRCFATNPDC-NH2; disulfide 2-15, 3-8), the “Inhibitory effect on α3β4 nAChR” value at α3β4 nAChR worked out at 39.27 ± 6.45%. In addition, at CaV2.2, the “direct inhibitory effect on CaV2.2” value turned out to be 14.87 ± 2.42%. Also, at α4β2 nAChR, the “Inhibitory effect on α4β2 nAChR” value is listed as 35.92 ± 12.50%. Moreover, the “Inhibitory effect on α3β2 nAChR” value on α3β2 nAChR is reported as 29.25 ± 12.65%. Also, the “Inhibitory effect on α9α10 nAChR” value on α9α10 nAChR is 5.09 ± 7.85%. Moreover, the “Inhibitory effect on α4β4 nAChR” value on α4β4 nAChR is given as 30.44 ± 8.03%. For the same molecule, the “Inhibitory effect on α2β4 nAChR” value at α2β4 nAChR worked out at 39.43 ± 6.31%. Besides, the “Inhibitory effect on α7 nAChR” value on α7 nAChR is 17.00 ± 0.35%. At GABABR-coupled CaV2.2 [1], the inhibition at 1 µM is 51.6 ± 1.86% and the IC50 was determined as 0.74 nM.

With Vc1.1, in the experiment on GABABR-coupled CaV2.2 [2], the IC50 is 2.38 nM.
